The subject of test [1] is sFGFR (soluble extracellular domain of FGFR2). Put plainly: Covalent cross-linking (DSS) of sFGFR, dimerization. It is filed as biochemical, human. How it is done:
Purified sFGFR was incubated with aFGF in the presence (lanes 2, 4, 6 and 8) or absence (lanes 1, 3, 5 and 7) of heparin for 1 hour at room temperature. The covalent cross-linker, DSS, was then added and incubation was continued for a further 45 minutes. Samples were then boiled in Laemmli sample buffer, separated by SDS-PAGE (6-12% gradient gel), and transferred to a nitro-cellulose membrane. The protein bands were visualized by blotting with anti-FGFR2 (lanes 1-4) or anti-aFGF antibodies (lanes 5-8), followed by ^125 I-protein A. I-sFGFR monomers; II-aFGF/sFGFR complex (monomeric); III-aFGF/sFGFR complex (dimeric).
A plasmid encoding the extracellular, ligand-binding domain of human FGFR2 (residues 1-355) was constructed using standard oligonucleotide-directed mutagenesis (Amersham) to introduce a translational termination codon immediately prior to the beginning of the single transmembrane domain of the receptor (Dionne et al., 1990). BamHI and SacII restriction sites were introduced 3' to the new termination codon. An XbaI-SacII fragment was isolated from the replicative form (RF) of this M13 mutagenesis product, filled in using T4 DNA polymerase (Boehringer-Mannheim) and inserted into the SmaI site of the expression vector pCVN (Dionne et al., 1990). This expression vector, which contains both the neomycin resistance and the dihydrofolate reductase genes for selection and amplification, was transfected into CHO cells following published procedures. Wigler et al., 1979, Cell 16:777-785.
Purified sFGFR (0.2 μM) was incubated with aFGF (0.6 μM) in the presence or absence of heparin. […] Cross-linking studies of aFGF alone were performed using the same procedure, except that samples were analyzed by 15% SDS-PAGE and detected by staining with Coomassie Brilliant Blue.
If aFGF activates its receptor in a similar manner, aFGF binding to sFGFR would therefore be expected to promote its dimerization. […] Samples were then analyzed by SDS-PAGE, followed by immunoblotting with either anti-FGFR2 or anti-aFGF antibodies. […]

A further test relates to sFGFR. Put plainly: aFGF/sFGFR/heparin complex formation by non-denaturing PAGE. Particulars: aFGF alone or heparin alone. The format is binding, human. The method, then: aFGF, heparin or a mixture of aFGF and heparin were added to sFGFR. Free aFGF and sFGFR were separated from the complexes by gel-filtration, and fractions containing the complexes were analyzed by non-denaturing PAGE. Proteins were visualized by staining with Coomasie Brilliant blue. Various oligomerization states of aFGF/sFGFR are detected only in the presence of heparin.
aFGF alone, or a pre-incubated mixture of heparin and aFGF (molar ratio 1:10) was added to a solution containing sFGFR. The mixtures were then incubated for 20 min at room temperature in 20 mM Hepes pH 7.5, 200 mM NaCl. Size-exclusion chromatography, using a Superose 12 column (Pharmacia), was then employed to separate free aFGF and sFGFR from the complex that formed. Fractions containing the isolated complexes were pooled, and analyzed by non-denaturing PAGE (4-15% gradient gels), using the Phastsystem (Pharmacia). Gels were stained with Coomassie Blue. In the case of the sFGFR/heparin mixture (FIG. 4, lane 2), heparin was simply added to the sFGFR solution prior to electrophoresis.
The requirement of both heparin and aFGF for the induction of sFGFR dimerization was also confirmed in a second experimental system. sFGFR was incubated with aFGF alone, or with aFGF plus heparin.

“Also recorded” adds a separate entry of the source.

For the substance heparin, in test [1] (both heparin and aFGF), the “sFGFR dimerization, heparin plus aFGF” value is “cross-linked dimers of sFGFR are formed under these conditions; also recorded: the binding of aFGF to sFGFR did lead to its dimerization”. Moreover, the “effect on mobility of sFGFR, heparin alone” value in test [1] (no aFGF) was “did not affect the mobility of sFGFR”. Moreover, the “mobility of sFGFR in non-denaturing PAGE” value in the test on sFGFR was “no significant effect upon the migration of sFGFR”.

With “aFGF: aFGF was expressed in E. coli and purified by binding to a heparin-sepharose column”, the “sFGFR dimerization, aFGF alone” value in test [1] (no heparin) was “No cross-linked dimeric form of sFGFR could be detected; also recorded: they were not detected in the presence of aFGF alone; also recorded: did not, however, result in the formation of dimers of the receptor extracellular domain”. Also, the “mobility of sFGFR in non-denaturing PAGE” value with sFGFR was “reduced slightly”.
